# Measured values published in patent publication US10100042B2, “[5,6]—fused bicyclic antidiabetic compounds” (Merck Sharp & Dohme Corp., priority 2014, dated 2018).
# pEC50: −log10 of the molar value.
# Columns and labels:
# Type in all cases: cell-based
# [1] = biological target: T1, human GPR40 (Homo sapiens (Human), UniProt O14842); test: FLIPR assay, agonist-induced calcium mobilization in GPR40/CHO NFAT BLA cells
# Procedure: (§1) Human and mouse GPR40 stable cell-lines were generated in CHO cells stably expressing NFAT BLA (Beta-lactamase). A human GPR40 stable cell-line was generated in HEK cells stably expressing the aequorin expressing reporter. The expression plasmids were transfected using lipofectamine (Life Technologies) following manufacturer's instructions. Stable cell-lines were generated following drug selection.
# FLIPR (Fluorimetric Imaging Plate Reader, Molecular Devices) assays were performed to measure agonist-induced calcium mobilization of the stable clones. For the FLIPR assay, one day before assay, GPR40/CHO NFAT BLA cells were seeded into black-wall-clear-bottom 384-well plates (Costar) at 1.4×10e4 cells/20 μL medium/well. The cells were incubated with 20 μl/well of the assay buffer (HBSS, 0.1% BSA, 20 mM HEPES, 2.5 mM probenecid, pH 7.4) containing 8 μM fluo-4, AM, 0.08% pluronic acid at room temperature for 100 minutes. Fluorescence output was measured using FLIPR. Compounds were dissolved in DMSO and diluted to desired concentrations with assay buffer. 13.3 μL/well of compound solution was added.
# [2] = biological target: T1, human GPR40; test: Inositol Phosphate Turnover (IP1) Assay 2 in HEK cells stably expressing human GPR40; settings: compound acoustically transferred
# Procedure: as §1
# (§2) The assay is performed in 384-well format. HEK cells stably expressing human GPR40 are plated at 15,000 cells per well in growth medium (DMEM/10% fetal calf serum). Cell plates are then incubated 16 hours at 37 degrees in a 5% CO2 incubator.
# Measurement of Inositol Phosphate Turnover (IP1) is performed using the CisBio IP-One kit (Part number 62IPAPEB). After the 16 hour incubation, the cells are washed with HEPES buffer and 10 ul of stimulation buffer (prepared as described in the kit) is added to each well. In a separate plate, compounds are diluted in DMSO (400-fold over the final concentration in the assay well) and 25 nl is acoustically transferred to the appropriate well in the assay cell plate. The plates are then incubated for 60 minutes at 37 degrees. […] The plates are then read in a Perkin Elmer EnVision or equivalent reader able to measure FRET. […]
# [3] = biological target: T1, human GPR40; test: Inositol Phosphate Turnover (IP1) Assay 1 in HEK cells stably expressing human GPR40; settings: compound transferred via pocket tip
# Procedure: as §1, §2
# Measurement of Inositol Phosphate Turnover (IP1) is performed using the CisBio IP-One kit (Part number 62IPAPEB). After the 16 hour incubation, the cells are washed with HEPES buffer and 10 ul of stimulation buffer (prepared as described in the kit) is added to each well. In a separate plate, compounds are diluted in DMSO (400-fold over the final concentration in the assay well) and 25 nl is transferred via pocket tip to the appropriate well in the assay cell plate. The plates are then incubated for 60 minutes at 37 degrees. 10 ul of detection buffer (also prepared as described in the IP-One kit) is added to each well and the plates are incubated for 60 minutes in the dark. The plates are then read in a Perkin Elmer EnVision or equivalent reader able to measure FRET. Fluorescent ratio of emission at 665 and 620 nm is then converted to IP1 concentration by back calculating from an IP1 standard curve prepared at the time of the assay.
# T1 sequence (O14842 whole entry): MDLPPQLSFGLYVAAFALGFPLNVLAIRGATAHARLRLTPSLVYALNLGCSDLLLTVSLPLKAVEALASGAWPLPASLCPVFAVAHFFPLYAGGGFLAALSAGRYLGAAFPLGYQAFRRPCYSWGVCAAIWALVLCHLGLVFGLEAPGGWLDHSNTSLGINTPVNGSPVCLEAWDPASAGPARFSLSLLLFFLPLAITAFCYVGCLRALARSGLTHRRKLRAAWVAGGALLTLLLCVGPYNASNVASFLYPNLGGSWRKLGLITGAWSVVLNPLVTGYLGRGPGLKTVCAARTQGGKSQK
SMILES,pEC50 [1],pEC50 [2],pEC50 [3]
Cc1cccc(C)c1-c1cccc(C2Cc3cc(CCC(=O)O)ccc3O2)c1 (racemic) [Example 18],5.91,,
"COc1cc(-c2ccc(CC3Cc4ccc([C@H](C5CC5)[C@H](C)C(=O)O)cc4O3)c(F)c2)ccn1 (single isomer, unassigned) [Example 5]",,7.46,
"COc1cc(-c2ccc(CC3Cc4ccc([C@H](C5CC5)[C@H](C)C(=O)O)cc4O3)c(F)c2)ccn1 (single isomer, unassigned) [Example 6]",,7.43,
"COc1cc(C)c(-c2cccc(C3Cc4cc(CCC(=O)O)ccc4O3)c2)c(C)c1 (single isomer, unassigned) [Example 16]",6.20,,5.23
"COc1cc(C)c(-c2cccc(C3Cc4cc(CCC(=O)O)ccc4O3)c2)c(C)c1 (single isomer, unassigned) [Example 17]",5.37,,5.40
"COc1ccc(F)c(-c2ccc(-c3cc4ccc([C@H](C5CC5)[C@H](C)C(=O)O)cc4o3)cc2)c1 [Example 1, (2S,3R)-3-cyclopropyl-3-(2-(2′-fluoro-5′-methoxy-[1,1′-biphenyl]-4-yl)benzofuran-6-yl)-2-methylpropanoic acid]",,,7.18
COc1ccc(F)c(-c2ccc(-c3cc4ccc([C@@H](CC(=O)O)C5CC5)cc4o3)nc2)c1 [Example 2],,,6.67
"COc1ccc(F)c(-c2ccc(C3Cc4ccc([C@H](C5CC5)[C@H](C)C(=O)O)cc4O3)cc2)c1 (stereo partly drawn) [Example 3, (2S,3R)-3-cyclopropyl-3-(2-(2′-fluoro-5′-methoxy-[1,1′-biphenyl]-4-yl)-2,3-dihydrobenzofuran-6-yl)-2-methylpropanoic acid]",,,6.98
COc1ccc(F)c(-c2ccc(C3Cc4ccc([C@@H](CC(=O)O)C5CC5)cc4O3)nc2)c1 (some centres unmarked) [Example 4],,,6.51
"Cc1cccc(C)c1-c1cccc(-c2cc3cc(CCC(=O)O)ccc3o2)c1 [Example 7, 3-(2-(2′,6′-dimethyl-[1,1′-biphenyl]-3-yl)benzofuran-5-yl)propanoic acid]",6.69,,5.49
O=C(O)CCc1ccc2oc(-c3ccc(C(F)(F)F)cc3)cc2c1 [Example 8],4.68,,
COc1cc(C)c(-c2cccc(-c3cc4cc(CCC(=O)O)ccc4o3)c2)cc1F [Example 9],6.09,,5.43
COc1cc(C)c(-c2cccc(-c3cc4cc(CCC(=O)O)ccc4o3)c2)c(C)c1 [Example 10],6.27,,
COc1c(F)cc(-c2cccc(-c3cc4cc(CCC(=O)O)ccc4o3)c2)c(Cl)c1F [Example 11],5.93,,5.34
Cc1cc(C)c(-c2cccc(-c3cc4cc(CCC(=O)O)ccc4o3)c2)c(F)c1 [Example 12],6.15,,< 5.00
Cc1cc(F)cc(C)c1-c1cccc(-c2cc3cc(CCC(=O)O)ccc3o2)c1 [Example 13],6.51,,5.21
O=C(O)CCc1ccc2oc(-c3cccc(-c4c(Cl)cccc4Cl)c3)cc2c1 [Example 14],6.14,,< 5.00
COc1cc(C)c(-c2cccc(C3Cc4cc(CCC(=O)O)ccc4O3)c2)c(C)c1 (centres unmarked) [Example 15],5.83,,
